pIC50: −log10 of the molar value.

In one test the test system is Aβ42. The test can be described thus: Amyloidβ peptide release (Aβ42) assay, AlphaLisa on supernatant of APPswe-HEK cells. In kind it is cell-based. Conditions: Homo sapiens, 24 hours incubation with compound, read-out: Ab42 IC50 Ranges. How it is done: (§1) Amyloidβ Peptide Release (Aβ42 & AβTotal) Assay to Determine IC50 Values.
(§2) Amyloidβ peptide release (Aβ42 & AβTotal) assay are performed in 384 well microtiter plates (Perkin Elmer AlphaPlate #6008350) in a final volume of 20 μl, using supernatant coming from APPswe-HEK cells exposed to test compounds. Compounds are dissolved in and diluted in 100% DMSO and incubated with APPswe-HEK cells for 24 hours a 37° C. in 5% CO2. The supernatant from APPswe-HEK cells are mixed with antibodies: for Aβ42 detection: AlphaLisa Amyloid β 1-42 Kit (Perkin Elmer AL203L) Anti-Amyloid β1-42-specific antibody acceptor beads, biotinylated anti-Amyloid “β1-42” antibody and streptavidin (SA) donor beads diluted in AlphaLisa buffer (to the instructions of the supplier). For Aβ total detection: Custom Anti-Amyloid βtotal acceptor beads (6E10 acceptor beads), biotinylated anti-Amyloid “β1-42” antibody (Perkin Elmer AL203L) and streptavidin (SA) donor beads diluted in AlphaLisa buffer (to the instructions of the supplier). After addition of supernatant to the antibody mix, the assay is incubated 4 h and 30 minutes. AmyloidP peptide release (Aβ42 & AβTotal) is measured with a Pherastar FS (BMG) multimode reader using the alphascreen module.
(Alpha assays give light when donor and acceptor beads are brought close together.)

The next test relates to AβTotal. Put plainly: Amyloidβ peptide release (AβTotal) assay, AlphaLisa on supernatant of APPswe-HEK cells. In kind it is cell-based, human. As to conditions: 24 hours, ratio Abtot versus Ab42. Here is the method: as §1, §2

The term pIC50 denotes −log10 of the IC50, conventionally taken in molar units. Turning to `COc1cc(NC(=O)c2nnn3c2CCCC3c2ccc(C(F)(F)F)cc2)ccc1-n1cnc(C)c1` (centres unmarked) [Example 25, N-(3-methoxy-4-(4-methyl-1H-imidazol-1-yl)phenyl)-7-(4-(trifluoromethyl)phenyl)-4,5,6,7-tetrahydro-[1,2,3]triazolo[1,5-a]pyridine-3-carboxamide], the negative-log IC50 (pIC50) in the test on Aβ42 is not below 6.82. In the test on AβTotal, the Abtot/Ab42 selectivity ranges result is reported as “c (c: 50 fold > selectivity ≧ 10 fold)”.
With `Cc1cn(-c2ccc(NC(=O)c3nnn4c3CCCC4c3ccc(Cl)cc3)cc2F)cn1` (centres unmarked) [Example 14, 7-(4-chlorophenyl)-N-(3-fluoro-4-(4-methyl-1H-imidazol-1-yl)phenyl)-4,5,6,7-tetrahydro-[1,2,3]triazolo[1,5-a]pyridine-3-carboxamide], the negative logarithm of the IC50 (pIC50) with Aβ42 is 6.30 to 6.82. In addition, in the test with AβTotal, the Abtot/Ab42 selectivity ranges result is “c (c: 50 fold > selectivity ≧ 10 fold)”.
In the same order, the values of `COc1cc(Nc2nnn3c2CCCC3c2ccc(Cl)cc2)ccc1-n1cnc(C)c1` (centres unmarked) [Example 4, 7-(4-chlorophenyl)-N-(3-methoxy-4-(4-methyl-1H-imidazol-1-yl)phenyl)-4,5,6,7-tetrahydro-[1,2,3]triazolo[1,5-a]pyridin-3-amine] are 6.30 to 6.82 and “b (b: 100 fold > selectivity ≧ 50 fold)”.
In the same order, the values of `COc1cc(NC(=O)c2nnn3c2CCCC3c2ccc(F)cc2Cl)ccc1-n1cnc(C)c1` (centres unmarked) [Example 17, 7-(2-chloro-4-fluorophenyl)-N-(3-methoxy-4-(4-methyl-1H-imidazol-1-yl)phenyl)-4,5,6,7-tetrahydro-[1,2,3]triazolo[1,5-a]pyridine-3-carboxamide] are 6.30 to 6.82 and “c (c: 50 fold > selectivity ≧ 10 fold)”.
In the same order, the values of `COc1cc(NC(=O)c2nnn3c2CCC3c2ccccc2Cl)ccc1-c1cnn(C)c1` (centres unmarked) [Example 33, 6-(2-chlorophenyl)-N-(3-methoxy-4-(1-methyl-1H-pyrazol-4-yl)phenyl)-5,6-dihydro-4H-pyrrolo[1,2-c][1,2,3]triazole-3-carboxamide] are 6.00 to 6.30 and “c (c: 50 fold > selectivity ≧ 10 fold)”.
As for `Cc1cn(-c2ccc(NC(=O)c3nnn4c3CCCC4c3ccc(Cl)cc3)cc2C#N)cn1` (centres unmarked) [Example 13, 7-(4-chlorophenyl)-N-(3-cyano-4-(4-methyl-1H-imidazol-1-yl)phenyl)-4,5,6,7-tetrahydro-[1,2,3]triazolo[1,5-a]pyridine-3-carboxamide], the negative-log IC50 (pIC50) in the test on Aβ42 was 6.30 to 6.82. Also, in the test with AβTotal, the Abtot/Ab42 selectivity ranges entry is reported as “c (c: 50 fold > selectivity ≧ 10 fold)”.
In the same order, the values of `COc1cc(Nc2nnn3c2CCCC3c2ccc(Cl)c(Cl)c2)ccc1-n1cnc(C)c1` (centres unmarked) [Example 5, 7-(3,4-dichlorophenyl)-N-(3-methoxy-4-(4-methyl-1H-imidazol-1-yl)phenyl)-4,5,6,7-tetrahydro-[1,2,3]triazolo[1,5-a]pyridin-3-amine] are 6.30 to 6.82 and “b (b: 100 fold > selectivity ≧ 50 fold)”.
As for `COc1cc(NC(=O)c2nnn3c2CCC[C@H]3c2ccc(Cl)cc2)ccc1-n1cnc(C)c1` [Example 24, (S)-7-(4-chlorophenyl)-N-(3-methoxy-4-(4-methyl-1H-imidazol-1-yl)phenyl)-4,5,6,7-tetrahydro-[1,2,3]triazolo[1,5-a]pyridine-3-carboxamide], the pIC50 with Aβ42 was 6.30 to 6.82. The Abtot/Ab42 selectivity ranges entry in the test on AβTotal is “b (b: 100 fold > selectivity ≧ 50 fold)”.
The matching figures for `COc1cc(NC(=O)c2nnn3c2CCC3c2ccc(F)cc2)ccc1-n1cnc(C)c1` (centres unmarked) [Example 36, 6-(4-fluorophenyl)-N-(3-methoxy-4-(4-methyl-1H-imidazol-1-yl)phenyl)-5,6-dihydro-4H-pyrrolo[1,2-c][1,2,3]triazole-3-carboxamide]: 6.30 to 6.82 and “b (b: 100 fold > selectivity ≧ 50 fold)”.
Consider `COc1cc(NC(=O)c2nnn3c2CCC[C@@H]3c2ccc(Cl)cc2)ccc1-n1cnc(C)c1` [Example 23, (R)-7-(4-chlorophenyl)-N-(3-methoxy-4-(4-methyl-1H-imidazol-1-yl)phenyl)-4,5,6,7-tetrahydro-[1,2,3]triazolo[1,5-a]pyridine-3-carboxamide], for which the negative-log IC50 (pIC50) with Aβ42 was not below 6.82. Moreover, the Abtot/Ab42 selectivity ranges result in the test with AβTotal was “b (b: 100 fold > selectivity ≧ 50 fold)”.
The matching figures for `COc1cc(Nc2nnn3c2CCC3c2ccc(F)cc2)ccc1-n1cnc(C)c1` (centres unmarked) [Example 10, 6-(4-fluorophenyl)-N-(3-methoxy-4-(4-methyl-1H-imidazol-1-yl)phenyl)-5,6-dihydro-4H-pyrrolo[1,2-c][1,2,3]triazol-3-amine]: 6.30 to 6.82 and “a (a: selectivity ≧ 100 fold)”.
The matching figures for `COc1cc(N(C)C(=O)c2nnn3c2CCCC3c2ccc(Cl)cc2)ccc1-n1cnc(C)c1` (centres unmarked) [Example 48, 7-(4-chlorophenyl)-N-(3-methoxy-4-(4-methyl-1H-imidazol-1-yl)phenyl)-N-methyl-4,5,6,7-tetrahydro-[1,2,3]triazolo[1,5-a]pyridine-3-carboxamide]: more than 6.00 and “a (a: selectivity ≧ 100 fold)”.
On to `COc1cc(NC(=O)c2nnn3c2CCC3c2ccc(Cl)c(Cl)c2)ccc1-c1cnn(C)c1` (centres unmarked) [Example 35, 6-(3,4-dichlorophenyl)-N-(3-methoxy-4-(1-methyl-1H-pyrazol-4-yl)phenyl)-5,6-dihydro-4H-pyrrolo[1,2-c][1,2,3]triazole-3-carboxamide], for which the negative logarithm of the IC50 (pIC50) in the test with Aβ42 is 6.30 to 6.82. The Abtot/Ab42 selectivity ranges result with AβTotal was “c (c: 50 fold > selectivity ≧ 10 fold)”.
In the same order, the values of `COc1cc(Nc2nnn3c2CCCC3c2cccc(C(F)(F)F)c2)ccc1-n1cnc(C)c1` (centres unmarked) [Example 6, N-(3-methoxy-4-(4-methyl-1H-imidazol-1-yl)phenyl)-7-(3-(trifluoromethyl)phenyl)-4,5,6,7-tetrahydro-[1,2,3]triazolo[1,5-a]pyridin-3-amine] are 6.30 to 6.82 and “b (b: 100 fold > selectivity ≧ 50 fold)”.
For `COc1cc(Nc2nnn3c2CCCC3c2ccc(F)cc2Cl)ccc1-n1cnc(C)c1` (centres unmarked) [Example 1, 7-(2-chloro-4-fluorophenyl)-N-(3-methoxy-4-(4-methyl-1H-imidazol-1-yl)phenyl)-4,5,6,7-tetrahydro-[1,2,3]triazolo[1,5-a]pyridin-3-amine], the pIC50 with Aβ42 was 6.30 to 6.82. In the test with AβTotal, the Abtot/Ab42 selectivity ranges result is “b (b: 100 fold > selectivity ≧ 50 fold)”.
In the same order, the values of `COc1cc(Nc2nnn3c2CCC3c2ccc(Cl)cc2)ccc1-n1cnc(C)c1` (centres unmarked) [Example 8, 6-(4-chlorophenyl)-N-(3-methoxy-4-(4-methyl-1H-imidazol-1-yl)phenyl)-5,6-dihydro-4H-pyrrolo[1,2-c][1,2,3]triazol-3-amine] are 6.30 to 6.82 and “a (a: selectivity ≧ 100 fold)”.
The matching figures for `COc1cc(C(=O)Nc2nnn3c2CCC3c2ccc(Cl)cc2)ccc1-n1cnc(C)c1` (centres unmarked) [Example 44, N-(6-(4-chlorophenyl)-5,6-dihydro-4H-pyrrolo[1,2-c][1,2,3]triazol-3-yl)-3-methoxy-4-(4-methyl-1H-imidazol-1-yl)benzamide]: 6.30 to 6.82 and “c (c: 50 fold > selectivity ≧ 10 fold)”.
In the same order, the values of `COc1cc(NC(=O)c2nnn3c2CCCC3c2ccc(Cl)c(Cl)c2)ccc1-n1cnc(C)c1` (centres unmarked) [Example 19, 7-(3,4-dichlorophenyl)-N-(3-methoxy-4-(4-methyl-1H-imidazol-1-yl)phenyl)-4,5,6,7-tetrahydro-[1,2,3]triazolo[1,5-a]pyridine-3-carboxamide] are not below 6.82 and “b (b: 100 fold > selectivity ≧ 50 fold)”.
Regarding `COc1cc(Nc2nnn3c2CCCC3c2ccc(F)cc2)ccc1-n1cnc(C)c1` (centres unmarked) [Example 7, 7-(4-fluorophenyl)-N-(3-methoxy-4-(4-methyl-1H-imidazol-1-yl)phenyl)-4,5,6,7-tetrahydro-[1,2,3]triazolo[1,5-a]pyridin-3-amine], the pIC50 in the test with Aβ42 is 6.30 to 6.82. Moreover, the Abtot/Ab42 selectivity ranges entry in the test with AβTotal is on record as “b (b: 100 fold > selectivity ≧ 50 fold)”.
Regarding `COc1cc(Nc2nnn3c2CCC3c2ccccc2Cl)ccc1-n1cnc(C)c1` (centres unmarked) [Example 11, 6-(2-chlorophenyl)-N-(3-methoxy-4-(4-methyl-1H-imidazol-1-yl)phenyl)-5,6-dihydro-4H-pyrrolo[1,2-c][1,2,3]triazol-3-amine], the negative-log IC50 (pIC50) with Aβ42 was 6.30 to 6.82. The Abtot/Ab42 selectivity ranges result with AβTotal is on record as “b (b: 100 fold > selectivity ≧ 50 fold)”.
On to `COc1nc(NC(=O)c2nnn3c2CCCC3c2ccc(Cl)cc2)ccc1-n1cnc(C)c1` (centres unmarked) [Example 15, 7-(4-chlorophenyl)-N-(6-methoxy-5-(4-methyl-1H-imidazol-1-yl)pyridin-2-yl)-4,5,6,7-tetrahydro-[1,2,3]triazolo[1,5-a]pyridine-3-carboxamide], for which, in the test with Aβ42, the pIC50 was 6.00 to 6.30. Also, in the test on AβTotal, the Abtot/Ab42 selectivity ranges result is reported as “c (c: 50 fold > selectivity ≧ 10 fold)”.
On to `COc1cc(NC(=O)c2nnn3c2CCC3c2ccc(F)cc2)ccc1-c1cnn(C)c1` (centres unmarked) [Example 37, 6-(4-fluorophenyl)-N-(3-methoxy-4-(1-methyl-1H-pyrazol-4-yl)phenyl)-5,6-dihydro-4H-pyrrolo[1,2-c][1,2,3]triazole-3-carboxamide], for which the pIC50 in the test with Aβ42 was more than 6.00. Besides, the Abtot/Ab42 selectivity ranges result with AβTotal is listed as “c (c: 50 fold > selectivity ≧ 10 fold)”.

For the origin of these results see patent US9527853B2, “Fused triazole derivatives as gamma secretase modulators” (Ares Trading S.A., priority 2012, dated 2016).
